According to patent publication US20210369853A1, “TARGETED PROTEASE DEGRADATION PLATFORM” (EUBULUS BIOTHERAPEUTICS INC., priority 2018, published 2021):
Where two headings read alike, the source gives them in different places.

Experiments:
Assay type in all cases: cell-based
[1] = system: Human Monocytic Leukemia MV4-11; assay: Cell proliferation experiment (Alarm blue, 72 h, EC50); settings: Homo sapiens
Outline: (§1)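 Growth inhibition over 72 h. Cells were cultured in standard media and passaged at least twice before plating, then treated with a 5-fold compound gradient. EC50 came from Alamar blue fluorescence.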

[2] = system: HUVEC; assay: Cell proliferation experiment (EC50), HUVEC; settings: Homo sapiens
[3] = biological target: T1, PLK1 (Homo sapiens, UniProt P53350); assay: Western blot, protein degradation (DC50)
T1 construct: endogenous in cells
T1 sequence (P53350 whole entry): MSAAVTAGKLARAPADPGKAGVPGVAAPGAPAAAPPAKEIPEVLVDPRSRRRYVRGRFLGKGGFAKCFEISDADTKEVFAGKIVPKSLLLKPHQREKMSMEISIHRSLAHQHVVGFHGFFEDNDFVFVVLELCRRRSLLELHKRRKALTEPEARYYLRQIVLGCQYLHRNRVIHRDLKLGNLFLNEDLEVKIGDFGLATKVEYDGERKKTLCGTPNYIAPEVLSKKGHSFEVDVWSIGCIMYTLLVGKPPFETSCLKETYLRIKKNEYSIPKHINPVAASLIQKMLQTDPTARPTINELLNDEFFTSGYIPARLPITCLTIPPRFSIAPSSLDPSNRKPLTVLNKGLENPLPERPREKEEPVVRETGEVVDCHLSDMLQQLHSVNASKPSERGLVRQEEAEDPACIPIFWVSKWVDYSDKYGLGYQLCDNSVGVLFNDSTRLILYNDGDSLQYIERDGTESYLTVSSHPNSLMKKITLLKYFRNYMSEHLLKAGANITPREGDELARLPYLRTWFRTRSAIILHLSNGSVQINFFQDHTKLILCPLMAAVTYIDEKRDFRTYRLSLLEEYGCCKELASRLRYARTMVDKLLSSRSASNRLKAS
Outline: (§2)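 Protein loss read by ECL Western blot after compound treatment of cells; RIPA lysates run on 4%-12% SDS-PAGE, transferred to PVDF, primary antibody overnight at 4° C. Degradation derived from quantified band intensities.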

[4] = biological target: T2, BRD4 (Homo sapiens, UniProt O60885); assay: Western blot, protein degradation (DC50)
T2 construct: endogenous in cells
Outline: as §2

[5] = system: PBMC; assay: Cell proliferation experiment (EC50), PBMC
[6] = system: HUVEC; assay: Cell proliferation experiment (EC50), HUVEC; settings: Homo sapiens; remark: listed apart in the source
[7] = system: Human Breast Cancer MDA-MB-231; assay: Cell proliferation experiment (Alarm blue, 72 h, EC50); settings: MDA-MB-231 cells
Outline: as §1

[8] = system: Human Monocytic Leukemia THP-1; assay: as above; settings: THP-1 cells
Outline: as §1

[9] = system: Human cervical adenocarcinoma cells Hela; assay: as above
Outline: as §1

[10] = system: Human Small Cell Lung Cancer NCI-H82; assay: as above; settings: Homo sapiens, NCI-H82; NCIH82 cells
Outline: as §1

[11] = system: Human Glioma Cells U-87 MG; assay: as above; settings: U-87MG cells
Outline: as §1

[12] = system: Human Acute Myelomonocytic Leukemia HL-60; assay: as above; settings: HL-60 cells
Outline: as §1

[13] = system: Human Colon Cancer HCT-116; assay: as above; settings: HCT116 cells
Outline: as §1

[14] = system: Human Colon Cancer HT-29; assay: as above; settings: HT-29 cells
Outline: as §1

[15] = system: PBMC; assay: Cell proliferation experiment (EC50), PBMC; remark: listed apart in the source
[16] = system: U937; assay: Cell proliferation experiment (EC50), U937; settings: Homo sapiens, U-937; U937 cells
[17] = system: HUVEC; assay: Cell proliferation experiment (EC50), HUVEC; settings: Homo sapiens; remark: listed apart in the source
[18] = system: PBMC; assay: Cell proliferation experiment (EC50), PBMC; remark: listed apart in the source
[19] = system: A549; assay: Cell proliferation experiment (EC50), A549; settings: Homo sapiens; A549 cells
[20] = system: Human Ovarian Cancer SK-OV-3; assay: Cell proliferation experiment (Alarm blue, 72 h, EC50); settings: SKO3 cells
Outline: as §1

[21] = system: Human Acute Lymphoblastic Leukemia Cells MOLT-4; assay: as above; settings: MOL4-4 cells
Outline: as §1

[22] = system: Daudi; assay: Cell proliferation experiment (EC50), Daudi; settings: Homo sapiens; Daudi cells
[23] = system: U937; assay: Cell proliferation experiment (EC50), U937; settings: Homo sapiens, U-937; U937 cells; remark: listed apart in the source
[24] = system: Daudi; assay: Cell proliferation experiment (EC50), Daudi; settings: Homo sapiens; Daudi cells; remark: listed apart in the source
[25] = system: A549; assay: Cell proliferation experiment (EC50), A549; settings: Homo sapiens; A549 cells; remark: listed apart in the source
[26] = system: HUVEC; assay: Cell proliferation experiment (EC50), HUVEC; settings: Homo sapiens; remark: listed apart in the source
[27] = system: PBMC; assay: Cell proliferation experiment (EC50), PBMC; remark: listed apart in the source
[28] = system: Daudi; assay: Cell proliferation experiment (EC50), Daudi; settings: Homo sapiens; Daudi cells; remark: listed apart in the source
[29] = system: HUVEC; assay: Cell proliferation experiment (EC50), HUVEC
[30] = system: PBMC; assay: Cell proliferation experiment (EC50), PBMC; remark: listed apart in the source
[31] = 6 h, read-out: PLK1 DC50 (nM) (6 h)
[32] = 24 h, read-out: PLK1 DC50 (nM) (24 h)
[33] = 6 h, read-out: BRD4 DC50 (nM) (6 h)
[34] = 24 h, read-out: BRD4 DC50 (nM) (24 h)
[35] = 6 h, western blot, read-out: PLK1 DC50 (6 h)
[36] = 24 h, western blot, read-out: PLK1 DC50 (24 h)
[37] = 6 h, western blot, read-out: BRD4 DC50 (6 h)
[38] = 24 h, western blot, read-out: BRD4 DC50 (24 h)

Row | EC50 ([1]; MV4-11, MV4;11 cells) [nM] | DC50 [3, 31] [nM] | EC50 [12] [nM] | EC50 ([13]; Homo sapiens, HCT-116) [nM] | SMILES | EC50 ([7]; Homo sapiens) [nM] | EC50 [8] [nM] | EC50 ([1]; MV4;11 cells) [nM] | EC50 ([9]; Homo sapiens) [nM] | EC50 [10] [nM] | EC50 ([11]; Homo sapiens) [nM] | EC50 ([14]; Homo sapiens) [nM] | EC50 ([20]; Homo sapiens, SK-OV-3) [nM] | other results
1 | 10 to 100 | 10 to 100 | – | – | CC[C@@H]1C(=O)N(C)c2cnc(Nc3ccc(C(=O)NCc4cn(CCNCCC(=O)Nc5cccc6c5CN(C5CCC(=O)NC5=O)C6=O)nn4)cc3OC)nc2N1Cc1ccc(Cl)s1 (stereo partly shown) [UB-180714] | – | – | – | – | – | – | – | – | EC50 [2]: 100 to 1000 nM; DC50 [3, 32]: < 10 nM; DC50 [4, 33]: < 10 nM; DC50 [4, 34]: < 10 nM; EC50 [5]: 100 to 1000 nM
2 | 10 to 100 | < 10 | 100 to 1000 | 100 to 1000 | CC[C@@H]1C(=O)N(C)c2cnc(Nc3ccc(C(=O)NC4CCN(CCOCCNCC(=O)Nc5cccc6c5CN(C5CCC(=O)NC5=O)C6=O)CC4)cc3OC)nc2N1Cc1ccc(Cl)s1 (stereo partly shown) [UB-180725] | 100 to 1000 | 100 to 1000 | – | 100 to 1000 | 100 to 1000 | 100 to 1000 | 100 to 1000 | 100 to 1000 | EC50 [23]: 100 to 1000 nM; EC50 [24]: 100 to 1000 nM; DC50 [3, 32]: < 10 nM; DC50 [4, 33]: < 10 nM; DC50 [4, 34]: < 10 nM; EC50 [25]: 100 to 1000 nM
3 | 10 to 100 | – | > 1000 | > 1000 | O=C1CCC(N2Cc3c(NC(=O)CCOCCOCCOCCNC(=O)c4ccc(Nc5ncc6c(n5)-c5ccc(Cl)cc5C(c5c(F)cccc5F)=NC6)cc4)cccc3C2=O)C(=O)N1 (stereo not shown) [UB-180535] | – | – | – | – | – | – | – | – | EC50 [26]: > 1000 nM; EC50 [27]: > 1000 nM
4 | 10 to 100 | < 10 | > 1000 | 100 to 1000 | O=C1CCC(N2Cc3c(NC(=O)CNCCOCCOCCOCCNC(=O)[C@]4(Cc5cccc(Nc6nccs6)n5)CC[C@@H](Oc5cccc(Cl)c5F)CC4)cccc3C2=O)C(=O)N1 (stereo partly shown) [UB-180730] | – | – | – | – | – | – | – | – | EC50 [2]: > 1000 nM; EC50 [5]: > 1000 nM
5 | 10 to 100 | – | 100 to 1000 | > 1000 | O=C1CCC(N2Cc3c(NC(=O)CCOCCOCCOCCNC(=O)[C@]4(Cc5cccc(Nc6nccs6)n5)CC[C@@H](Oc5cccc(Cl)c5F)CC4)cccc3C2=O)C(=O)N1 (stereo partly shown) [UB-180581] | – | – | – | – | – | – | – | – | EC50 [6]: > 1000 nM; DC50 ([3]; 6 h, read-out: PLK1 DC50 (6 h)): < 10 nM; EC50 [15]: > 1000 nM
6 | 10 to 100 | – | – | – | CC[C@@H]1C(=O)N(C)c2cnc(Nc3ccc(C(=O)NCCOCCOCCOCCC(=O)Nc4cccc5c4CN(C4CCC(=O)NC4=O)C5=O)cc3OC)nc2N1C1CCCC1 (stereo partly shown) [UB-180605] | – | – | – | – | 100 to 1000 | 100 to 1000 | 100 to 1000 | – | EC50 [28]: 100 to 1000 nM
7 | – | – | – | – | CC[C@@H]1C(=O)N(C)c2cnc(Nc3ccc(C(=O)NC4CCN(CCOCCN(CC(=O)Nc5cccc6c5CN(C5CCC(=O)NC5=O)C6=O)C(=O)OC(C)C(C)SSC[C@@H](NC(=O)CCOCCOCCOCCOCCOCCOCCNC(=O)CC[C@H](NC(=O)c5ccc(NCc6cnc7nc(N)[nH]c(=O)c7n6)cc5)C(=O)O)C(=O)O)CC4)cc3OC)nc2N1C1CCCC1 (stereo partly shown) [UB-180829] | – | – | – | – | – | – | – | – | EC50 [29]: > 1000 nM; EC50 [20]: 100 to 1000 nM; EC50 [7]: 100 to 1000 nM; EC50 [9]: 100 to 1000 nM; EC50 [11]: 100 to 1000 nM; EC50 [13]: 100 to 1000 nM; EC50 [14]: 100 to 1000 nM; EC50 [30]: > 1000 nM

Row | SMILES | EC50 ([1]; MV4-11, MV4;11 cells) [nM] | DC50 [3, 31] [nM] | EC50 [12] [nM] | EC50 ([13]; Homo sapiens, HCT-116) [nM] | EC50 ([7]; Homo sapiens) [nM] | EC50 [8] [nM] | EC50 ([1]; MV4;11 cells) [nM] | EC50 ([9]; Homo sapiens) [nM] | EC50 [10] [nM] | EC50 ([11]; Homo sapiens) [nM] | EC50 ([14]; Homo sapiens) [nM] | EC50 ([20]; Homo sapiens, SK-OV-3) [nM] | other results
8 | CC[C@@H]1C(=O)N(C)c2cnc(Nc3ccc(C(=O)NCCOCCOCCOCCNCCC(=O)Nc4cccc5c4CN(C4CCC(=O)NC4=O)C5=O)cc3OC)nc2N1C1CCCC1 (stereo partly shown) [UB-180633] | – | – | 100 to 1000 | > 1000 | 100 to 1000 | 100 to 1000 | 10 to 100 | 100 to 1000 | > 1000 | 100 to 1000 | 100 to 1000 | – | EC50 [6]: > 1000 nM; DC50 ([3]; 6 h, read-out: PLK1 DC50 (6 h)): 100 to 1000 nM; DC50 ([3]; 24 h, read-out: PLK1 DC50 (24 h)): 10 to 100 nM; DC50 ([4]; 6 h, read-out: BRD4 DC50 (6 h)): < 10 nM; DC50 ([4]; 24 h, read-out: BRD4 DC50 (24 h)): < 10 nM; EC50 [15]: > 1000 nM
9 | CC[C@@H]1C(=O)N(C)c2cnc(Nc3ccc(C(=O)NC4CCN(CCNCCOCC(=O)Nc5cccc6c5CN(C5CCC(=O)NC5=O)C6=O)CC4)cc3OC)nc2N1Cc1ccc(Cl)s1 (stereo partly shown) [UB-180711] | – | – | 100 to 1000 | 100 to 1000 | 100 to 1000 | 100 to 1000 | < 10 | 100 to 1000 | 100 to 1000 | 100 to 1000 | 100 to 1000 | 100 to 1000 | EC50 [16]: 100 to 1000 nM; EC50 [17]: 100 to 1000 nM; EC50 [18]: 100 to 1000 nM; EC50 [19]: 100 to 1000 nM; EC50 [21]: 100 to 1000 nM; EC50 [22]: 100 to 1000 nM; DC50 [3, 35]: 10 to 100 nM; DC50 [3, 36]: < 10 nM; DC50 [4, 37]: < 10 nM; DC50 [4, 38]: < 10 nM
10 | CC[C@@H]1CN(C)c2cnc(Nc3ccc(C(=O)NCCOCCOCCOCCNCCC(=O)Nc4cccc5c4CN(C4CCC(=O)NC4=O)C5=O)cc3OC)nc2N1Cc1ccc(Cl)s1 (stereo partly shown) [UB-180701] | – | – | 100 to 1000 | 100 to 1000 | 100 to 1000 | 100 to 1000 | < 10 | 100 to 1000 | 100 to 1000 | 100 to 1000 | 100 to 1000 | 100 to 1000 | EC50 [16]: 100 to 1000 nM; EC50 [17]: > 1000 nM; EC50 [18]: > 1000 nM; EC50 [19]: 100 to 1000 nM; EC50 [21]: 100 to 1000 nM; EC50 [22]: 100 to 1000 nM; DC50 [3, 35]: 10 to 100 nM; DC50 [3, 36]: < 10 nM; DC50 [4, 37]: < 10 nM; DC50 [4, 38]: < 10 nM
